Common to all, as to assay type: biochemical
One assay has as its target JAK1 (Homo sapiens (Human), UniProt P23458). Put plainly: JAK Caliper Enzyme Assay at 1 mM ATP, JAK1. An outline of the steps:
(§1)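 IC50 (nM) derived from percent conversion of fluorescently labelled peptide, measured by Caliper LabChip mobility-shift separation after EDTA stop. Each JAK family kinase domain (human, recombinant) run at 1 mM ATP and room temperature, conditions set to 20-30% product; DMSO wells define uninhibited baseline.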

In a further assay the target is TYK2 (Homo sapiens (Human), UniProt P29597). Put plainly: JAK Caliper Enzyme Assay at 1 mM ATP, TYK2. Put shortly: (§2)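 Inhibition is measured as reduced phosphorylation of a synthetic peptide by the recombinant human kinase domain at 1 mM ATP. Conditions give 20–30% conversion at room temperature before EDTA quench, and on-chip separation of labelled substrate and product yields percent conversion for dose–response plotting.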

The target in the next assay is JAK2 (Homo sapiens (Human), UniProt O60674). Put plainly: JAK Caliper Enzyme Assay at 1 mM ATP, JAK2. An outline of the steps: as §2
The target of the next assay is JAK3 (Homo sapiens (Human), UniProt P52333). Put plainly: JAK Caliper Enzyme Assay at 1 mM ATP, JAK3. Put shortly: as §1

Molecules are shown by their SMILES. Bounds are passed on as bounds.

TYK2, sequence (P29597 897-1176): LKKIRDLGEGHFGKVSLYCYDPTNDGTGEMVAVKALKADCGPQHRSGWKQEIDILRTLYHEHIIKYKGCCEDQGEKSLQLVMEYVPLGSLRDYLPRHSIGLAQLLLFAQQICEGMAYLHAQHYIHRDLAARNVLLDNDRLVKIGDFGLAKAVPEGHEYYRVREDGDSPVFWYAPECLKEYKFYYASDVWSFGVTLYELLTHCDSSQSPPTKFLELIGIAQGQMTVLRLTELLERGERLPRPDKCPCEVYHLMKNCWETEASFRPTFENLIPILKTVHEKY
JAK2, sequence (O60674 849-1124): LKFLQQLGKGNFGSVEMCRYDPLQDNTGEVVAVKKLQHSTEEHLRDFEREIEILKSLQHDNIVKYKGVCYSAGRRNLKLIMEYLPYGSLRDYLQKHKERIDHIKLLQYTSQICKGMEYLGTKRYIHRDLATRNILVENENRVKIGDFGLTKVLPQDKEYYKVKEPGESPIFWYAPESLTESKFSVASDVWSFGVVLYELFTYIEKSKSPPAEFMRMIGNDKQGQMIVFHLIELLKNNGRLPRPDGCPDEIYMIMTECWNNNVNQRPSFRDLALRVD
JAK1, sequence (P23458 875-1153): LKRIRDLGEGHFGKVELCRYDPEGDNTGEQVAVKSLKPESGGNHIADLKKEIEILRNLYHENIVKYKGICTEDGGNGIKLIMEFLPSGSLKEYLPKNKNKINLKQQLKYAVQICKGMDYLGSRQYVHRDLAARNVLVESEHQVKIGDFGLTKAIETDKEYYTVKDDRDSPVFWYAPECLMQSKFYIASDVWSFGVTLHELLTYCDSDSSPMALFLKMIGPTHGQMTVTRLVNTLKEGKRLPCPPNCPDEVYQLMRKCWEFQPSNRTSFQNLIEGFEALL
JAK3, sequence (P52333 822-1111): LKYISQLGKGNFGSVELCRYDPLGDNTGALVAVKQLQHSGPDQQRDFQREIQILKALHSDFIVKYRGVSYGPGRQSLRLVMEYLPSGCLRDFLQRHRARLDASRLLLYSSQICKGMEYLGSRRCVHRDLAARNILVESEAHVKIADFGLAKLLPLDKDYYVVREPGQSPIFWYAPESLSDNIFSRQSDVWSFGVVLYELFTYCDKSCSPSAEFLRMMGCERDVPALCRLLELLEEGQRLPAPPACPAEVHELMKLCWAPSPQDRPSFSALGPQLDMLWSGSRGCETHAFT

One may read the IC50 as the concentration needed to halve the response being measured. Regarding `CO[C@H]1C[C@@](CC#N)(n2ccc(-c3nc(-c4ccc(=O)[nH]c4)cc4ncccc34)n2)C1` [Example 247, (cis-3-methoxy-1-{3-[7-(6-oxo-1,6-dihydropyridin-3-yl)-1,6-naphthyridin-5-yl]-1H-pyrazol-1-yl}cyclobutyl)acetonitrile], the half-maximal inhibitory concentration (IC50) at JAK1 was 1340 nM; on TYK2 it was 49 nM; at JAK2 it was 778 nM; on JAK3, more than 10000 nM.
With `Cn1cc(-c2cc3ncccc3c(-c3ccn(C4(CC#N)CN(S(C)(=O)=O)C4)n3)n2)ccc1=O` [Example 248, [3-{3-[7-(1-methyl-6-oxo-1,6-dihydropyridin-3-yl)-1,6-naphthyridin-5-yl]-1H-pyrazol-1-yl}-1-(methylsulfonyl)azetidin-3-yl]acetonitrile], the IC50 on JAK1 was 994 nM; at TYK2, 96 nM; at JAK2, 532 nM; on JAK3 it was more than 10000 nM.
`Cn1cc(-c2cc3ncccc3c(-c3ccn(C4(CC#N)CN(CC(F)(F)F)C4)n3)n2)ccc1=O` [Example 249, [3-{3-[7-(1-methyl-6-oxo-1,6-dihydropyridin-3-yl)-1,6-naphthyridin-5-yl]-1H-pyrazol-1-yl}-1-(2,2,2-trifluoroethyl)azetidin-3-yl]acetonitrile]: the IC50 at JAK1 was 1080 nM; at TYK2 it was 178 nM; on JAK2, 1150 nM; at JAK3 it was more than 10000 nM.
As for `Cc1cc(-c2cc3ncccc3c(-c3ccn(C4(CC#N)CN(CC(F)(F)F)C4)n3)n2)c[nH]c1=O` [Example 250, [3-{3-[7-(5-methyl-6-oxo-1,6-dihydropyridin-3-yl)-1,6-naphthyridin-5-yl]-1H-pyrazol-1-yl}-1-(2,2,2-trifluoroethyl)azetidin-3-yl]acetonitrile], the half-inhibitory concentration (IC50) at JAK1 was 1260 nM; on TYK2 it was 55 nM; on JAK2, 821 nM; at JAK3, more than 10000 nM.
As for `CCn1cc(-c2cc3ncccc3c(-c3ccn(C4(CC#N)CN(S(C)(=O)=O)C4)n3)n2)ccc1=O` [Example 251, [3-{3-[7-(1-ethyl-6-oxo-1,6-dihydropyridin-3-yl)-1,6-naphthyridin-5-yl]-1H-pyrazol-1-yl}-1-(methylsulfonyl)azetidin-3-yl]acetonitrile], the IC50 at JAK1 was 541 nM; at TYK2 it was 48 nM; on JAK2, 229 nM; at JAK3 it was more than 10000 nM.
In the case of `CS(=O)(=O)N1CC(CC#N)(n2ccc(-c3nc(-c4ccccc4O)cc4ncccc34)n2)C1` [Example 252, [3-{3-[7-(2-hydroxyphenyl)-1,6-naphthyridin-5-yl]-1H-pyrazol-1-yl}-1-(methylsulfonyl)azetidin-3-yl]acetonitrile], the IC50 on JAK1 was 663 nM; at TYK2 it was 15 nM; at JAK2, 118 nM; at JAK3, more than 10000 nM.
Take `CS(=O)(=O)N1CC(CC#N)(n2ccc(-c3nc(-c4ccc(O)cc4)cc4ncccc34)n2)C1` [Example 254, [3-{3-[7-(4-hydroxyphenyl)-1,6-naphthyridin-5-yl]-1H-pyrazol-1-yl}-1-(methylsulfonyl)azetidin-3-yl]acetonitrile]: the IC50 on JAK1 is 237 nM; on TYK2, 11 nM; at JAK2 it was 205 nM; on JAK3, more than 10000 nM.
Taken in the same sequence, the figures for `CS(=O)(=O)N1CC(CC#N)(n2ccc(-c3nc(-c4ccccc4CO)cc4ncccc34)n2)C1` [Example 255, [3-(3-{7-[2-(hydroxymethyl)phenyl]-1,6-naphthyridin-5-yl}-1H-pyrazol-1-yl)-1-(methylsulfonyl)azetidin-3-yl]acetonitrile] were more than 10000 nM, 3170 nM, more than 10000 nM and more than 10000 nM.
With `CS(=O)(=O)N1CC(CC#N)(n2ccc(-c3nc(-c4ccccc4F)cc4ncccc34)n2)C1` [Example 258, [3-{3-[7-(2-fluorophenyl)-1,6-naphthyridin-5-yl]-1H-pyrazol-1-yl}-1-(methylsulfonyl)azetidin-3-yl]acetonitrile], the IC50 at JAK1 is more than 10000 nM; at TYK2 it was 255 nM; at JAK2, more than 10000 nM; on JAK3, more than 10000 nM.
For `CS(=O)(=O)N1CC(CC#N)(n2ccc(-c3nc(-c4ccc(F)cc4O)cc4ncccc34)n2)C1` [Example 259, [3-{3-[7-(4-fluoro-2-hydroxyphenyl)-1,6-naphthyridin-5-yl]-1H-pyrazol-1-yl}-1-(methylsulfonyl)azetidin-3-yl]acetonitrile], the IC50 at JAK1 is more than 10000 nM; on TYK2, 19 nM; on JAK2 it was 566 nM; at JAK3 it was more than 10000 nM.
Regarding `CS(=O)(=O)N1CC(CC#N)(n2ccc(-c3nc(-c4ccc(O)c(F)c4)cc4ncccc34)n2)C1` [Example 260, [3-{3-[7-(3-fluoro-4-hydroxyphenyl)-1,6-naphthyridin-5-yl]-1H-pyrazol-1-yl}-1-(methylsulfonyl)azetidin-3-yl]acetonitrile], the IC50 on JAK1 was 198 nM; on TYK2, 27 nM; at JAK2 it was 325 nM; at JAK3 it was more than 10000 nM.
On to `CS(=O)(=O)N1CC(CC#N)(n2ccc(-c3nc(-c4cc(O)cc(F)c4)cc4ncccc34)n2)C1` [Example 261, [3-{3-[7-(3-fluoro-5-hydroxyphenyl)-1,6-naphthyridin-5-yl]-1H-pyrazol-1-yl}-1-(methylsulfonyl)azetidin-3-yl]acetonitrile], for which the IC50 at JAK1 was more than 10000 nM; at TYK2, 118 nM; at JAK2, more than 10000 nM; at JAK3, more than 10000 nM.
`CS(=O)(=O)N1CC(CC#N)(n2ccc(-c3nc(-c4cc(F)ccc4O)cc4ncccc34)n2)C1` [Example 262, [3-{3-[7-(5-fluoro-2-hydroxyphenyl)-1,6-naphthyridin-5-yl]-1H-pyrazol-1-yl}-1-(methylsulfonyl)azetidin-3-yl]acetonitrile]: the IC50 on JAK1 is more than 10000 nM; on TYK2, 242 nM; on JAK2, more than 10000 nM; on JAK3 it was more than 10000 nM.
Turning to `CCN1CC(CC#N)(n2ccc(-c3nc(C4=CCOCC4)cc4ncccc34)n2)C1` [Example 263, (3-{3-[7-(3,6-dihydro-2H-pyran-4-yl)-1,6-naphthyridin-5-yl]-1H-pyrazol-1-yl}-1-ethylazetidin-3-yl)acetonitrile], the IC50 at JAK1 is more than 10000 nM; on TYK2, 1390 nM; at JAK2, 9570 nM; at JAK3, more than 10000 nM.
Consider `CCN1CC(CC#N)(n2ccc(-c3nc(N4CCOCC4)cc4ncccc34)n2)C1` [Example 264, (1-ethyl-3-{3-[7-(morpholin-4-yl)-1,6-naphthyridin-5-yl]-1H-pyrazol-1-yl}azetidin-3-yl)acetonitrile], for which the IC50 on JAK1 is more than 10000 nM; at TYK2 it was 6990 nM; on JAK2, more than 10000 nM; at JAK3, more than 10000 nM.
In the case of `CCN1CC(CC#N)(n2ccc(-c3nc(N4CCCC4)cc4ncccc34)n2)C1` [Example 265, (1-ethyl-3-{3-[7-(pyrrolidin-1-yl)-1,6-naphthyridin-5-yl]-1H-pyrazol-1-yl}azetidin-3-yl)acetonitrile], the IC50 is more than 10000 nM on JAK1, 4820 nM on TYK2, more than 10000 nM on JAK2 and more than 10000 nM on JAK3.

The values above are taken from patent US11254668B2, “Pyrazolo[1,5-A]pyrazin-4-yl and related derivatives” (Pfizer Inc., priority 2017, dated 2022).
